19 compounds from patent US11530244B2, “Cyclic polypeptides for PCSK9 inhibition” (priority 2018, dated 2022) can be followed below.

In the assay the target is human PCSK9 / human LDLR EGFa domain interaction (Homo sapiens (Human), UniProt Q8NBP7). Briefly: TR-FRET assay of inhibition of the PCSK9-LDLR protein-protein interaction. The format is binding. The following applies: TR-FRET, 20 nM human PCSK9, 20 nM human LDLR EGFa domain, 2 hours room temperature; read-out: IC50. In outline:
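Half-maximal inhibitory concentrations came from 4-parameter fits of dose-response data. Proteins: biotinylated PCSK9, His-tagged LDLR EGFa, 20 nM each; labels 5 nM; 2 h, room temperature; buffer 50 mM HEPES, 150 mM NaCl, 5 mM CaCl2.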

Starred links: 1 amine or outer side, 2 acyl side, 3 side chain; linkers in the order of their positions; H or OH if unused. Positions of bridges follow the written chain, without caps; N, C: chain ends. Non-standard residues stand in square brackets, D forms with d. Residues, ends and D or L forms follow the SMILES beside them. Groups on a side chain read outwards from the residue. ξ: configuration not given here. *: point of attachment. Ala(benzothiazol-2-yl) = N[C@@H](Cc1nc2ccccc2s1)C(=O)O; Pro(trans-4-cHex) = O=C(O)[C@@H]1C[C@@H](C2CCCCC2)CN1; Pro(trans-4-Ph) = O=C(O)[C@@H]1C[C@@H](c2ccccc2)CN1; X25 = O=C([C@H](Cc1cccc(OCC=[*:3])c1)N[*:1])[*:2]; Pro(4R-Bn) = O=C(O)[C@@H]1C[C@@H](Cc2ccccc2)CN1; Trp(5-F) = N[C@@H](Cc1c[nH]c2ccc(F)cc12)C(=O)O; Pro(3R-Ph) = O=C(O)[C@H]1NCC[C@@H]1c1ccccc1; X3 = O=C(CCSCc1cc(F)cc(CSCCN[*:1])c1)[*:2]; X42 = CN([C@@H](CCC=[*:3])C(=O)[*:2])[*:1]; mXylylene(5-F) = Fc1cc(C[*:1])cc(C[*:2])c1; Phe(4-CN) = N#Cc1ccc(C[C@H](N)C(=O)O)cc1; X4 = O=C(CCSCc1cccc(CSCCN[*:1])c1)[*:2]; Phe(4-Me) = Cc1ccc(C[C@H](N)C(=O)O)cc1; γGlu = O=C(O)[C@H](CCC(=O)[*:2])N[*:1]; mXylylene = c1cc(C[*:1])cc(C[*:2])c1; Palmitoyl = CCCCCCCCCCCCCCCC(=O)*; ξAEF = NCCOc1ccc(CC(N)C(=O)O)cc1; αMeP = C[C@@]1(C(=O)O)CCCN1; Dab = NCC[C@H](N)C(=O)O; Aib = CC(C)(N)C(=O)O; OBn = c1ccc(CO*)cc1; Mpa = O=C(O)CCS

human PCSK9 / human LDLR EGFa domain interaction, sequence (Q8NBP7 153-692): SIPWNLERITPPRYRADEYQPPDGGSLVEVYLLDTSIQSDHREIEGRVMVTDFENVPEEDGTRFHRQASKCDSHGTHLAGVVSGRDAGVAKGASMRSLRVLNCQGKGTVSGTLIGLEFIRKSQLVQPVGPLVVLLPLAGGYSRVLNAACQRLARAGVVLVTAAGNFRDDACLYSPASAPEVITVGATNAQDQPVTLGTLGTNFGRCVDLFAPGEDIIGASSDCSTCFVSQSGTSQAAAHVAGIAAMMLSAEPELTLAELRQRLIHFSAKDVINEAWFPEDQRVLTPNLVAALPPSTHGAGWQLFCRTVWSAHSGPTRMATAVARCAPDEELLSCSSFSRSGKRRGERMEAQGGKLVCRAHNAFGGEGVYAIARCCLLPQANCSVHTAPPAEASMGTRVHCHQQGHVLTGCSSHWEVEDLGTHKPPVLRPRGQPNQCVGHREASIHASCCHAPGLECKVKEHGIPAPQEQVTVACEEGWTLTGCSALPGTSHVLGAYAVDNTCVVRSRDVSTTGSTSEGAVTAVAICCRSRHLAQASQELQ
human PCSK9 / human LDLR EGFa domain interaction, sequence (Q8NBP7 31-152 partner): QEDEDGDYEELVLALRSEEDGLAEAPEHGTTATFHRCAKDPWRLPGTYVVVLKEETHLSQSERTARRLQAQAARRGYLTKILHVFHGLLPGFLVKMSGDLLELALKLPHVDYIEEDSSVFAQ

In the case of `NCCCC[C@@H]1NC(=O)CCSCc2cccc(c2)CSC[C@@H](C(N)=O)NC(=O)[C@@H]2CCCN2C(=O)[C@H](Cc2nc3ccccc3s2)NC(=O)[C@H](Cc2c[nH]cn2)NC(=O)[C@H](CC(=O)O)NC(=O)[C@H](Cc2c[nH]c3ccc(F)cc23)NC(=O)[C@H](Cc2c[nH]c3ccc(F)cc23)NC(=O)CNC1=O` [Compound 266] ([Mpa]KG[Trp(5-F)][Trp(5-F)]DH[Ala(benzothiazol-2-yl)]PC-NH2; linker 1-10 via mXylylene), the IC50 lay in the range of 21 to 50 µM.

Regarding `CCCCCCCCCCCCCCCC(=O)N[C@@H](CCC(=O)N[C@@H](CCC(=O)NCCCC[C@@H]1NC(=O)CCSCc2cccc(c2)CSC[C@@H](C(N)=O)NC(=O)[C@]2(C)CCCN2C(=O)[C@H](Cc2ccc(O)cc2)NC(=O)[C@H](Cc2c[nH]cn2)NC(=O)[C@H](CC(=O)O)NC(=O)[C@H](Cc2c[nH]c3ccc(F)cc23)NC(=O)[C@H](Cc2c[nH]c3ccc(F)cc23)NC(=O)CNC1=O)C(=O)O)C(=O)O` [Compound 283] ([Mpa]K([γGlu-γGlu-Palmitoyl])G[Trp(5-F)][Trp(5-F)]DHY[αMeP]C-NH2; linker 1-10 via mXylylene), the half-maximal inhibitory concentration (IC50) was in the range of 21 to 50 µM.

On to `CCCCCCCCCCCCCCCC(=O)N[C@@H](CCC(=O)N[C@@H](CCC(=O)NCC[C@H](NC(=O)[C@@H]1CSCc2cccc(c2)CSCCC(=O)N[C@@H](CCCCN)C(=O)NCC(=O)N[C@@H](Cc2c[nH]c3ccc(F)cc23)C(=O)N[C@@H](Cc2c[nH]c3ccc(F)cc23)C(=O)N[C@@H](CC(=O)O)C(=O)N[C@@H](Cc2c[nH]cn2)C(=O)N[C@@H](Cc2ccc(O)cc2)C(=O)N2CCC[C@@]2(C)C(=O)N1)C(N)=O)C(=O)O)C(=O)O` [Compound 284] ([Mpa]KG[Trp(5-F)][Trp(5-F)]DHY[αMeP]C[Dab]([γGlu-γGlu-Palmitoyl])-NH2; linker 1-10 via mXylylene), for which the IC50 was in the range of 21 to 50 µM.

With `C[C@@]12CCCN1C(=O)[C@H](Cc1ccc(O)cc1)NC(=O)[C@H](Cc1cnc[nH]1)NC(=O)[C@H](CC(=O)O)NC(=O)[C@H](Cc1c[nH]c3ccc(F)cc13)NC(=O)[C@H](Cc1c[nH]c3ccc(F)cc13)NC(=O)CNC(=O)[C@H](CCCCN)NC(=O)CCSCc1cc(F)cc(c1)CSC[C@@H](C(N)=O)NC2=O` [Compound 287] ([Mpa]KG[Trp(5-F)][Trp(5-F)]DHY[αMeP]C-NH2; linker 1-10 via mXylylene(5-F)), the half-maximal inhibitory concentration (IC50) fell in the range of 21 to 50 µM.

Consider `C[C@H]1NC(=O)[C@H](CCCCN)NC(=O)CCSCc2cc(F)cc(c2)CSCCNC(=O)[C@]2(C)CCCN2C(=O)[C@H](Cc2ccc(O)cc2)NC(=O)[C@H](Cc2cnc[nH]2)NC(=O)[C@H](CC(=O)O)NC(=O)[C@H](Cc2c[nH]c3ccc(F)cc23)NC(=O)[C@H](Cc2c[nH]c3ccc(F)cc23)NC1=O` [Compound 289] (cyclo(DHY[αMeP][X3]K[dA][Trp(5-F)][Trp(5-F)])), for which the IC50 lay in the range of 21 to 50 µM.

On to `NCCCC[C@@H]1NC(=O)CCSCc2cccc(c2)CSC[C@@H](C(N)=O)NC(=O)[C@@H]2C[C@@H](c3ccccc3)CN2C(=O)[C@H](Cc2ccc(O)cc2)NC(=O)[C@H](Cc2c[nH]cn2)NC(=O)[C@H](CC(=O)O)NC(=O)[C@H](Cc2c[nH]c3ccc(F)cc23)NC(=O)[C@H](Cc2c[nH]c3ccc(F)cc23)NC(=O)CNC1=O` [Compound 293] ([Mpa]KG[Trp(5-F)][Trp(5-F)]DHY[Pro(trans-4-Ph)]C-NH2; linker 1-10 via mXylylene), for which the IC50 was 0.0001 to 0.1 µM.

For the compound `NCCCC[C@@H]1NC(=O)CCSCc2cccc(c2)CSC[C@@H](C(N)=O)NC(=O)[C@@H]2C[C@@H](Cc3ccccc3)CN2C(=O)[C@H](Cc2ccc(O)cc2)NC(=O)[C@H](Cc2c[nH]cn2)NC(=O)[C@H](CC(=O)O)NC(=O)[C@H](Cc2c[nH]c3ccc(F)cc23)NC(=O)[C@H](Cc2c[nH]c3ccc(F)cc23)NC(=O)CNC1=O` [Compound 294] ([Mpa]KG[Trp(5-F)][Trp(5-F)]DHY[Pro(4R-Bn)]C-NH2; linker 1-10 via mXylylene), the IC50 was in the range of 0.1 to 1 µM.

As to `Cc1ccc(C[C@@H]2NC(=O)[C@H](Cc3c[nH]cn3)NC(=O)[C@H](CC(=O)O)NC(=O)[C@H](Cc3c[nH]c4ccc(F)cc34)NC(=O)[C@H](Cc3c[nH]c4ccc(F)cc34)NC(=O)[C@@H](C)NC(=O)[C@H](CCCCN)NC(=O)CCSCc3cccc(c3)CSCCNC(=O)[C@]3(C)CCCN3C2=O)cc1` [Compound 299] (cyclo(DH[Phe(4-Me)][αMeP][X4]K[dA][Trp(5-F)][Trp(5-F)])), the IC50 is 0.1 to 1 µM.

Turning to `C[C@H]1NC(=O)[C@H](CCCCN)NC(=O)CCSCc2cccc(c2)CSCCNC(=O)[C@]2(C)CCCN2C(=O)[C@H](Cc2ccc(C#N)cc2)NC(=O)[C@H](Cc2c[nH]cn2)NC(=O)[C@H](CC(=O)O)NC(=O)[C@H](Cc2c[nH]c3ccc(F)cc23)NC(=O)[C@H](Cc2c[nH]c3ccc(F)cc23)NC1=O` [Compound 300] (cyclo(DH[Phe(4-CN)][αMeP][X4]K[dA][Trp(5-F)][Trp(5-F)])), the IC50 lay in the range of 0.1 to 1 µM.

In the case of `NCCCC[C@@H]1NC(=O)CCSCc2cccc(c2)CSC[C@@H](C(N)=O)NC(=O)[C@@H]2C[C@@H](C3CCCCC3)CN2C(=O)[C@H](Cc2ccc(O)cc2)NC(=O)[C@H](Cc2c[nH]cn2)NC(=O)[C@H](CC(=O)O)NC(=O)[C@H](Cc2c[nH]c3ccc(F)cc23)NC(=O)[C@H](Cc2c[nH]c3ccc(F)cc23)NC(=O)CNC1=O` [Compound 304] ([Mpa]KG[Trp(5-F)][Trp(5-F)]DHY[Pro(trans-4-cHex)]C-NH2; linker 1-10 via mXylylene), the IC50 lay within 21 to 50 µM.

Take `C[C@@H]1NC(=O)CCSCc2cccc(c2)CSC[C@@H](C(N)=O)NC(=O)[C@]2(C)CCCN2C(=O)[C@H](Cc2ccc(O)cc2)NC(=O)[C@H](Cc2cnc[nH]2)NC(=O)[C@H](CC(=O)O)NC(=O)[C@H](Cc2c[nH]c3ccc(F)cc23)NC(=O)[C@H](Cc2c[nH]c3ccc(F)cc23)NC(=O)CNC1=O` [Compound 308] ([Mpa]AG[Trp(5-F)][Trp(5-F)]DHY[αMeP]C-NH2; linker 1-10 via mXylylene): the IC50 was in the range of 1 to 12.1 µM.

As to `CC1(C)NC(=O)[C@H](Cc2c[nH]c3ccc(F)cc23)NC(=O)CNC(=O)[C@H](CCCCN)NC(=O)CCSCc2cccc(c2)CSC[C@@H](C(N)=O)NC(=O)[C@@H]2CCCN2C(=O)[C@H](Cc2ccc(O)cc2)NC(=O)[C@H](Cc2cnc[nH]2)NC(=O)[C@H](CC(=O)O)NC1=O` [Compound 317] ([Mpa]KG[Trp(5-F)][Aib]DHYPC-NH2; linker 1-10 via mXylylene), the IC50 lay in the range of 21 to 50 µM.

For the compound `CC1(C)NC(=O)[C@H](Cc2cnc[nH]2)NC(=O)[C@H](CC(=O)O)NC(=O)[C@H](Cc2c[nH]c3ccc(F)cc23)NC(=O)[C@H](Cc2c[nH]c3ccc(F)cc23)NC(=O)CNC(=O)[C@H](CCCCN)NC(=O)CCSCc2cccc(c2)CSC[C@@H](C(N)=O)NC(=O)[C@@H]2CCCN2C1=O` [Compound 318] ([Mpa]KG[Trp(5-F)][Trp(5-F)]DH[Aib]PC-NH2; linker 1-10 via mXylylene), the IC50 lay within 0.0001 to 0.1 µM.

For the compound `C[C@H]1NC(=O)[C@H](Cc2ccc(O)cc2)NC(=O)[C@H](Cc2cnc[nH]2)NC(=O)[C@H](CC(=O)O)NC(=O)[C@H](Cc2c[nH]c3ccc(F)cc23)NC(=O)[C@H](Cc2c[nH]c3ccc(F)cc23)NC(=O)CNC(=O)[C@H](CCCCN)NC(=O)CCSCc2cccc(c2)CSC[C@@H](C(N)=O)NC1=O` [Compound 320] ([Mpa]KG[Trp(5-F)][Trp(5-F)]DHY[dA]C-NH2; linker 1-10 via mXylylene), the IC50 lay within 21 to 50 µM.

`CC(=O)N[C@@H]1CC(=O)NCCOc2ccc(cc2)CC(C(N)=O)NC(=O)[C@]2(C)CCCN2C(=O)[C@H](Cc2ccc(O)cc2)NC(=O)[C@H](Cc2cnc[nH]2)NC(=O)[C@H](CC(=O)OCc2ccccc2)NC(=O)[C@H](Cc2c[nH]c3ccc(F)cc23)NC(=O)[C@H](Cc2c[nH]c3ccc(F)cc23)NC(=O)CNC1=O` (stereo partly shown) [Compound 321] (Ac-[dD]G[Trp(5-F)][Trp(5-F)]D(OBn)HY[αMeP][ξAEF]-NH2; lactam 1-9): the IC50 lay in the range of 0.1 to 1 µM.

Turning to `NCCCC[C@@H]1NC(=O)CCSCc2cccc(c2)CSC[C@@H](C(N)=O)NC(=O)[C@@H]2CCCN2C(=O)[C@@H]2[C@@H](c3ccccc3)CCN2C(=O)[C@H](Cc2c[nH]cn2)NC(=O)[C@H](CC(=O)O)NC(=O)[C@H](Cc2c[nH]c3ccc(F)cc23)NC(=O)[C@H](Cc2c[nH]c3ccc(F)cc23)NC(=O)CNC1=O` [Compound 326] ([Mpa]KG[Trp(5-F)][Trp(5-F)]DH[Pro(3R-Ph)]PC-NH2; linker 1-10 via mXylylene), the half-maximal inhibitory concentration (IC50) lay within 1 to 12.1 µM.

Regarding `COc1ccc(C[C@@H]2NC(=O)[C@H]([C@@H](C)OC)NC(=O)[C@@H]3CC/C=C/COc4cccc(c4)C[C@H](NC(=O)[C@@H](C)NC(=O)[C@H](C)NC(=O)CCSCc4cc(F)cc(c4)CSCCNC(=O)[C@]4(C)CCCN4C2=O)C(=O)N[C@@H](Cc2c[nH]c4ccc(F)cc24)C(=O)N3C)cc1` [Compound 504] (cyclo(A[dA][X25][Trp(5-F)][X42]T(Me)Y(Me)[αMeP][X3]); staple (E) 3-5), the IC50 lay within 0.1 to 1 µM.

As to `COc1ccc(C[C@@H]2NC(=O)[C@H]([C@@H](C)OC)NC(=O)[C@@H]3CC/C=C\COc4cccc(c4)C[C@H](NC(=O)[C@@H](C)NC(=O)[C@H](C)NC(=O)CCSCc4cc(F)cc(c4)CSCCNC(=O)[C@]4(C)CCCN4C2=O)C(=O)N[C@@H](Cc2c[nH]c4ccc(F)cc24)C(=O)N3C)cc1` [Compound 505] (cyclo(A[dA][X25][Trp(5-F)][X42]T(Me)Y(Me)[αMeP][X3]); staple (Z) 3-5), the IC50 lay in the range of 0.1 to 1 µM.

Turning to `COc1ccc(C[C@@H]2NC(=O)[C@@H]3CCCC/C=C/CO[C@H]4C[C@@H](C(=O)N3)N(C4)C(=O)[C@H](Cc3c[nH]c4ccc(F)cc34)NC(=O)[C@H](Cc3c[nH]c4ccc(F)cc34)NC(=O)[C@@H](C)NC(=O)[C@H](CCCCN)NC(=O)CCSCc3cccc(c3)CSC[C@@H](C(N)=O)NC(=O)[C@]3(C)CCCN3C2=O)cc1` [Compound 508], the concentration for half-maximal inhibition (IC50) was in the range of 0.1 to 1 µM.
